From paper PMC6450673, “Targeted degradation of aberrant tau in frontotemporal dementia patient-derived neuronal cell models” (eLife, 2019)
One block for each molecule: values may come before it.

Assays:
monoamine oxidase (MAO) = test: Monoamine oxidase (MAO-Glo) activity assay; assay type: biochemical; settings: four parameter fit; for IC50: 60-min reaction, read-out: MAO Dose Response IC50
Protocol: The Monoamine oxidase (MAO) activity measurements were performed using a MAO-Glo assay kit (Promega, Madison, WI), in a 384-well plate (Proxiplate 384 Plus, Perkin Elmer, Waltham, MA) with the miniaturization of final assay volume to 20 µL, as per the manufacturer’s instructions. In brief, MAO reactions were terminated after a 60-min enzymatic reaction, by the addition of reconstituted Luciferin Detection Reagent. Following a 20-min incubation with the detection reagent, the luminescence was measured using a multi-label plate reader (Envision, Perkin Elmer). IC50 values were estimated by fitting percentage inhibition vs. compound concentration in a variable slope (four parameter) fit.

[1] = test system: total tau (TAU5) in A152T neurons; test: Western blot of total tau in A152T neurons; assay type: cell-based, human; settings: pre-treatment 6 hr then 1 μM QC-01–175 for 18 hr, western blot
From the text: (§1) Cells from individuals carrying the tau risk variant A152T (c.1407G > A; NCBI RefSeq NM_001123066, rs143624519), the autosomal dominant mutation P301L (c.C1907T; NCBI NM_001123066, rs63751273), or age-matched non-mutant WT tau were employed in this study (Figure 2—source data 1). Dermal fibroblasts from the tau-P301L carrier and the healthy individual were generated from a skin biopsy from subjects within the MGH Frontotemporal Disorders Unit as part of the MGH Neurodegeneration Repository. Approval for human subjects’ work was obtained under a Partners/MGH-approved IRB Protocol (#2010P001611/MGH). Fibroblasts were reprogrammed into iPSCs, which were subsequently converted into cortical-enriched neural progenitor cells (NPCs) and differentiated into neuronal cells as previously described ([Almeida et al., 2012]; [Seo et al., 2017]; [Silva et al., 2016]; [Sheridan et al., 2011]) (Silva MC, Manuscript in preparation, 2019). Briefly, cells were cultured in 6-well (Fisher Scientific Corning, Pittsburgh, PA) or 96-well (Fisher Scientific Corning) plates coated with poly-ornithine (20 μg/mL in water, Sigma, St. Louis, MO) and laminin (5 μg/mL in PBS, Sigma) (POL-coated), in DMEM/F12-B27 media [70% DMEM (Gibco, Carlsbad, CA), 30% Ham’s-F12 (Fisher Scientific Corning), 2% B27 (Gibco), 1% penicillin-streptomycin (Gibco)]. Media was supplemented with EGF (20 ng/mL, Sigma), FGF (20 ng/mL, Stemgent, Cambridge, MA) and heparin (5 μg/mL, Sigma), to promote NPC proliferation and expansion. The growth factors were withdrawn to promote neural differentiation for 6 to 8 weeks, with half media change two times per week. Cell lines’ identity was authenticated by SANGER sequencing, karyotyping and ACGH analysis at different stages of culture maintenance from iPSC to NPC. All working cell lines tested negative for mycoplasma contamination.
(§2) Compound treatment in six-well plates was performed in 2 mL media volume by removing 1 mL of conditioned media from the culture and adding 1 mL of new media pre-mixed with the compound at the appropriate 2X concentration, followed by incubation at 37°C for the designated period of time. Compound treatment in 96-well plates was performed in 100 μL media volume by adding compound directly to each well, followed by incubation at 37°C. When testing the effect of drug pre-treatment, the first compound was added as described above for the period of time needed, and then QC-01–175 was added directly onto the media without media exchange.
(§3) Neurons differentiated in six-well plates for 6 weeks were washed and collected in PBS, lysed in RIPA buffer (Boston Bio-Products, Boston, MA) supplemented with 2% SDS (Sigma), protease inhibitors cocktail (Roche Complete Mini tablets, Mannheim, Germany), and phosphatase inhibitors cocktail (Sigma), followed by water sonication (Bransonic Ultrasonic Baths, Thomas Scientific, Danbury, CT) and 20,000 g centrifugation for 20 min. Supernatants were transferred to new tubes and total protein concentration was quantified with the Pierce BCA Protein Assay Kit (ThermoFisher Scientific, Carlsbad, CA). Human recombinant tau protein ladder was purchased from Sigma. Electrophoresis were performed with the Novex NuPAGE SDS-PAGE Gel System (Invitrogen, Carlsbad, CA), by running 10 μg of total protein (pre-boiled in SDS-DTT loading buffer, NEB, Ipswich, MA) on pre-cast SDS-PAGE. Gels were transferred onto PVDF membranes (EMD Millipore) using standard procedures. Membranes were blocked in 5% BSA (Sigma) in Tris-buffered saline with Tween-20 (TBST/Biorad, Hercules, CA) for 2 hr, incubated overnight with primary antibody (see antibody section) at 4°C, followed by corresponding HRP-linked secondary antibody incubation (Cell Signaling Technology, Danvers, MA). […]

[2] = test system: P-tau S396 in A152T neurons; test: Western blot of P-tau S396 in A152T neurons; assay type: cell-based, human; settings: 24 hr, across biological replicates
From the text: as §1, §2, §3

[3] = target: T1, recombinant human tau Tau-441(WT) (Homo sapiens, UniProt P10636); test: Bio-layer interferometry (BLI) biosensor assay, tau WT; assay type: binding; settings: BLI steady-state analysis, immobilized biotinylated tau; Figure 1—figure supplement 1B
T1 construct: biotin (chemical label, NHS-PEG4); purchased SignalChem T08-54BN; host or cells: E. coli
T1 sequence (P10636 1-441 isoform P10636-8): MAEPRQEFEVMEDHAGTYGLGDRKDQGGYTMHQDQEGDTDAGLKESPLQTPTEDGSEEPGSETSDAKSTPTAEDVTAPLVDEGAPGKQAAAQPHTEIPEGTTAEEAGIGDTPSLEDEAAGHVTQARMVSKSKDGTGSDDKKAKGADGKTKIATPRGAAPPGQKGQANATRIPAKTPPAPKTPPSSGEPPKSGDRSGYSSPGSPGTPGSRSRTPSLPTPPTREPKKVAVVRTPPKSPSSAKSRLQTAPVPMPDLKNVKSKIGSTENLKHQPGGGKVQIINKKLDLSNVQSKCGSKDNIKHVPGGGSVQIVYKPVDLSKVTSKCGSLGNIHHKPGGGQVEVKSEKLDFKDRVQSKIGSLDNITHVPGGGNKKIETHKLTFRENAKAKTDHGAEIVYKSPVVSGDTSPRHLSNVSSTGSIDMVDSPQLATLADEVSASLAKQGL
Protocol: (§4) BLI was performed in the Octet Red384 instrument (ForteBio, Fremont CA, USA) with 1X PBS and 0.01% Brij-35 as the assay buffer. […] The biotinylated protein samples for BLI were purified in 1X phosphate buffered saline (PBS). Streptavidin (SA) sensors were used to measure the biophysical interaction between the small molecules and biotinylated tau. Prior to the initiation of BLI, the SA sensors were soaked by dipping in 200 μL of assay buffer in a 96-well Greiner Bio-One Black flat bottom plate (Greiner, Monroe NC, USA Cat.655209). The assay was performed in 80 μL volume in Greiner Bio-One 384-well black flat bottom PP plates (Greiner, Cat.781209) with an initial baseline step, followed by loading of 250 nM biotinylated tau protein. The small molecules samples and recombinant proteins were arranged in the 384-well plate according to a plate map recommended for the eight-channel mode kinetic analysis, where the sensors move from low to high concentration of small molecule samples. Subsequent steps included a second baseline (120 s), followed by association (240 s) and dissociation (240 s) cycles. […] When Req option is selected, Fortebio’s software calculates affinity constants based on the Req values determined from the curve fits. […]

[4] = target: T2, recombinant human tau Tau-441(A152T) (Homo sapiens, UniProt P10636, A469T); test: Bio-layer interferometry (BLI) biosensor assay, tau A152T; assay type: binding; settings: BLI steady-state analysis, immobilized biotinylated tau; Figure 1—figure supplement 1B; read-out: KD, Tau A152T
T2 construct: biotin (chemical label, NHS-PEG4); purchased SignalChem T08-56VN; host or cells: E. coli
T2 sequence (P10636 1-441 isoform P10636-8 A152T): as the sequence (P10636 1-441 isoform P10636-8) above, with A152T counted along it
Protocol: BLI was performed in the Octet Red384 instrument (ForteBio, Fremont CA, USA) with 1X PBS and 0.01% Brij-35 as the assay buffer. […] The biotinylated protein samples for BLI were purified in 1X phosphate buffered saline (PBS). Streptavidin (SA) sensors were used to measure the biophysical interaction between the small molecules and biotinylated tau. Prior to the initiation of BLI, the SA sensors were soaked by dipping in 200 μL of assay buffer in a 96-well Greiner Bio-One Black flat bottom plate (Greiner, Monroe NC, USA Cat.655209). The assay was performed in 80 μL volume in Greiner Bio-One 384-well black flat bottom PP plates (Greiner, Cat.781209) with an initial baseline step, followed by loading of 250 nM biotinylated tau protein. The small molecules samples and recombinant proteins were arranged in the 384-well plate according to a plate map recommended for the eight-channel mode kinetic analysis, where the sensors move from low to high concentration of small molecule samples. Subsequent steps included a second baseline (120 s), followed by association (240 s) and dissociation (240 s) cycles. […] Data analysis was performed using Data Acquisition HT 11.0 software following reference subtraction (an average of two sensors with DMSO) using a 1:1 binding model and an individual fit of each replicate. The equilibrium dissociation constant (KD) was estimated using data at equilibrium from each available small molecule concentration with steady-state analysis. The instrument manufacturer (Fortebio, article #137) recommends the steady state option for analyzing interactions that are either low affinity or very fast on-and-off affinity rates. […] When Req option is selected, Fortebio’s software calculates affinity constants based on the Req values determined from the curve fits. In the steady-state analysis, Req is plotted against the small molecule concentration to infer the Rmax. […] As per the instrument manufacturer’s instructions, if all curves have reached equilibrium, these two sets of values correspond to ‘Response,’ and Req values should match. […]

[5] = target: T3, recombinant human tau Tau-441(P301L) (Homo sapiens, UniProt P10636, P618L); test: Bio-layer interferometry (BLI) biosensor assay, tau P301L; assay type: binding; settings: BLI steady-state analysis, immobilized biotinylated tau; Figure 1—figure supplement 1B
T3 construct: biotin (chemical label, NHS-PEG4); purchased SignalChem T08-56FN; host or cells: E. coli
T3 sequence (P10636 1-441 isoform P10636-8 P301L): as the sequence (P10636 1-441 isoform P10636-8) above, with P301L counted along it
Protocol: as §4

Compound: N[C@@H]1C[C@H]1c1ccccc1 (racemic) [Parnate, Tranylcypromine]
IC50 (monoamine oxidase (MAO)): 0.057 µM
MAO Dose Response Hill Slope (monoamine oxidase (MAO)): 1.504
MAO Dose Response Log IC50 (monoamine oxidase (MAO)): -1.240

IC50 (monoamine oxidase (MAO)): > 50 µM
MAO Dose Response Hill Slope (monoamine oxidase (MAO)): 0.108
Compound: Nc1cccc2c1C(=O)N(C1CCC(=O)NC1=O)C2=O (centres unmarked) [Pomalidomide]

Compound: Nc1cccc2c1CN(C1CCC(=O)NC1=O)C2=O (centres unmarked) [lenalidomide, Lenalidomide, reference compound]
effect of 6 hr pre-treatment on QC-01–175-mediated tau degradation (total tau and P-tau S396) [1]: reversed QC-01–175-mediated tau degradation in a concentration-dependent manner
up-regulation of P-tau S396 ([2]; 1 μM): ~ 30%
up-regulation of P-tau S396 ([2]; 10 μM): ~90%

Compound: NS(=O)(=O)OC[C@@H]1C[C@@H](n2ccc3c(N[C@H]4CCc5ccccc54)ncnc32)C[C@@H]1O [MLN4924, reference compound]
effect of 6 hr pre-treatment on QC-01–175-mediated tau degradation (total tau and P-tau S396) [1]: caused a concentration-dependent rescue of the effect of QC-01–175

Kd [3]: 22 ± 2.78 µM
Kd [4]: 22.1 ± 3.26 µM
Kd [5]: 8.8 ± 1.11 µM
Compound: COc1cc(OCc2ccccn2)ccc1/C=C/c1cc(/C=C/c2ccc3cc[nH]c3c2)n[nH]1 [PE859, reference compound]

Compound: CO/C1=C\C(C)=C\[C@@H](C)[C@@H](O)[C@@H](C)C/C(C)=C/C=C/[C@H](OC)[C@@H]([C@@H](C)[C@@H](O)[C@H](C)[C@@]2(O)C[C@@H](O)[C@H](C)[C@@H](C(C)C)O2)OC1=O [bafilomycin A1, Bafilomycin A1, reference compound]
effect of 6 hr pre-treatment on QC-01–175-mediated tau degradation (total tau and P-tau S396) [1]: did not reverse the degrader effect and further promoted tau clearance

Compound: CC(C)C[C@H](NC(=O)[C@H](CCc1ccccc1)NC(=O)CN1CCOCC1)C(=O)N[C@@H](Cc1ccccc1)C(=O)N[C@@H](CC(C)C)C(=O)[C@@]1(C)CO1 [carfilzomib, Carfilzomib, reference compound]
effect of 6 hr pre-treatment on QC-01–175-mediated tau degradation (total tau and P-tau S396) [1]: caused a concentration-dependent rescue of the effect of QC-01–175
